According to ChEMBL document CHEMBL1128051, “Radioprotective effects of -galactosylceramides” (1995):
Where “and” joins values, the source holds several entries; their conditions need not be identical. Identical values can stand only once.

Columns and labels:
Type in all cases: functional
Mus musculus [1] = assay: Evaluation of Radioprotective effect of the intravenously administered compound (0.1 mg/kg on day 0,4,8) after irradiation on mice with 9 Gy of X-ray on day 25
Mus musculus [2] = assay: Evaluation of Radioprotective effect of the intravenously administered compound (0.1 mg/kg on day 0,4,8) after irradiation on mice with 9 Gy of X-ray on day 35
Mus musculus [3] = assay: Evaluation of Radioprotective effect of the intravenously administered compound (0.1 mg/kg on day 0,4,8) after irradiation on mice with 9 Gy of X-ray on day 20
Mus musculus [4] = assay: Evaluation of Radioprotective effect of the intravenously administered compound (0.1 mg/kg on day 0,4,8) after irradiation on mice with 9 Gy of X-ray on day 15
Mus musculus [5] = assay: Evaluation of Radioprotective effect of the intravenously administered compound (0.1 mg/kg on day 0,4,8) after irradiation on mice with 9 Gy of X-ray on day 10

Row | SMILES | Survival (Mus musculus [1]) [%] | Survival (Mus musculus [2]) | Survival (Mus musculus [3]) [%] | Survival (Mus musculus [4]) | Survival (Mus musculus [5]) [%]
1 | CCCCCCCCCCCCCCCCCCCCCC[C@@H](O)C(=O)N[C@@H](CO[C@H]1O[C@@H](CO)[C@H](O)[C@H](O)[C@@H]1O)[C@H](O)[C@H](O)CCCCCCCCCCCCCC | 80 | 90% and 80% | 80 | 100% | 100
2 | CCCCCCCCCCCCCCCCCCCCCC[C@@H](O)C(=O)NC(CO[C@H]1O[C@@H](CO)[C@H](O)[C@H](O)[C@@H]1O)[C@H](O)CCCCCCCCCCCCCCC (single isomer, unassigned) | 90 | 90% | 90 | 100% | 100
3 | CCCCCCCCCCCCCCC[C@@H](O)[C@H](CO[C@H]1O[C@@H](CO)[C@H](O)[C@H](O)[C@@H]1O)NC(=O)CCCCCCCCCCCCC (stereo in doubt; form 2) | 20 | 20% | 20 | – | –
4 | CCCCCCCCCCCCCCC[C@@H](O)[C@H](CO[C@H]1O[C@@H](CO)[C@H](O)[C@H](O)[C@@H]1O)NC(=O)CCCCCCCCCCCCC (stereo in doubt; form 1) | 90 | 90% | 90 | 100% and 90% | 100
5 | CCCCCCCCCCCCCCCCCCCCCCCC(=O)NC(CO[C@H]1O[C@@H](CO)[C@H](O)[C@H](O)[C@@H]1O)[C@H](O)CCCCCCCCCCCCCCC (single isomer, unassigned) | 90 | 90% | 90 | 100% | 100
6 | CCCCCCCCCCCCCCCCCCCCCCCC(=O)N[C@@H](CO[C@H]1O[C@@H](CO)[C@H](O)[C@H](O)[C@@H]1O)C(O)[C@H](O)CCCCCCCCCCCCCC (single isomer, unassigned) | 90 | 90% | 90 | 100% and 90% | 100
